This note sets out measurements from patent US20140031217A1, “HERBICIDAL COMPOSITIONS COMPRISING 4-AMINO-3-CHLORO-5-FLUORO-6-(4-CHLORO-2-FLUORO-3-METHOXYPHENYL)PYRIDINE-2-CARBOXYLIC ACID OR A DERIVATIVE THEREOF AND AUXIN TRANSPORT INHIBITORS” (DOW AGROSCIENCES LLC, priority 2012, published 2014).

The test system of one test is ECHCG. The test can be described thus: In-water applied (paddy) greenhouse weed control, ECHCG. To be noted: 19 DAA. The class given is in vivo, Echinochloa crusgalli (L.) Beauv. The procedure: (§1) Weed seeds or nutlets of the desired test plant species were planted in puddled soil (mud) prepared by mixing a shredded, non-sterilized mineral soil (50.5 percent silt, 25.5 percent clay, and 24 percent sand, with a pH of about 7.6 and an organic matter content of about 2.9 percent) and water at a 1:1 volumetric ratio. The prepared mud was dispensed in 365 mL aliquots into 16-ounce (oz.) non-perforated plastic pots with a surface area of 86.59 square centimeters (cm^2) leaving a headspace of 3 centimeters (cm) in each pot. Mud was allowed to dry overnight prior to planting or transplanting. Rice seeds were planted in Sun Gro MetroMix® 306 planting mixture, which typically has a pH of 6.0 to 6.8 and an organic matter content of about 30 percent, in plastic plug trays. Seedlings at the second or third leaf stage of growth were transplanted into 840 mL of mud contained in 32-oz. non-perforated plastic pots with a surface area of 86.59 cm^2 4 days prior to herbicide application. The paddy was created by filling the headspace of the pots with 2.5 to 3 cm of water. When required to ensure good germination and healthy plants, a fungicide treatment and/or other chemical or physical treatment was applied. The plants were grown for 4-22 days in a greenhouse with an approximate 14 h photoperiod which was maintained at about 29′C during the day and 26° C. during the night. Nutrients were added as Osmocote® (19:6:12, N:P:K+minor nutrients) at 2 g per 16-oz. pot and 4 g per 960-mL 32-oz. pot. Water was added on a regular basis to maintain the paddy flood, and supplemental lighting was provided with overhead metal halide 1000-Watt lamps as necessary. The plants were employed for testing when they reached the second or third true leaf stage.
(§2) Treatments consisted of the acid or esters of 4-amino-3-chloro-5-fluoro-6-(4-chloro-2-fluoro-3-methoxy-phenyl)pyridine-2-carboxylic acid (compound A) each formulated as an SC and various herbicidal components alone and in combination. Forms of compound A were applied on an acid equivalent basis.
(§3) Other herbicidal components were applied on an active ingredient basis and included auxin transport inhibiting (ATI) herbicides chlorflurenol-methyl (technical material), chlorflurenol (technical material), diflufenzopyr (technical material), dilfufenzopyr sodium (technical material), flurenol-methyl (technical material,) and naptalam (technical material).
(§4) Treatment requirements for each compound or herbicidal component were calculated based upon the rates being tested, the concentration of active ingredient or acid equivalent in the formulation, an application volume of 2 mL per component per pot, and an application area of 86.59 cm^2 per pot.
(§5) For formulated compounds, a measured amount was placed in an individual 100 or 200 mL glass vial and was dissolved in a volume of 1.25% (v/v) Agri-Dex® crop oil concentrate to obtain application solutions.
(§6) For technical grade compounds, a weighed amount was placed in an individual 100 to 200 mL glass vial and was dissolved in a volume of acetone to obtain concentrated stock solutions. […] The concentrated stock solutions obtained were diluted with an equivalent volume of an aqueous mixture containing 2.5% (v/v) crop oil concentrate so that the final application solutions contained 1.25% (v/v) crop oil concentrate.
(§7) Applications were made by injecting with a pipetter appropriate amounts of the application solutions, individually and sequentially, into the aqueous layer of the paddy. Control plants were treated in the same manner with the solvent blank. Applications were made so that all treated plant material received the same concentrations of acetone and crop oil concentrate.
(§8) The treated plants and control plants were placed in a greenhouse as described above and water was added as needed to maintain a paddy flood. […]

The next test concerns BRAPP. The test can be described thus: Postemergence foliar-applied greenhouse weed control, BRAPP. Conditions: 22 DAA. It is filed as in vivo, Brachiaria platyphylla (Griseb.) Nash. The source says:
(§9) Seeds or nutlets of the desired test plant species were planted in a soil matrix prepared by mixing a loam or sandy loam soil (e.g., 28.6 percent silt, 18.8 percent clay, and 52.6 percent sand, with a pH of about 5.8 and an organic matter content of about 1.8 percent) and calcareous grit in an 80 to 20 ratio. The soil matrix was contained in plastic pots with a volume of 1 quart and a surface area of 83.6 square centimeters (cm^2). When required to ensure good germination and healthy plants, a fungicide treatment and/or other chemical or physical treatment was applied. The plants were grown for 8-22 days in a greenhouse with an approximate 14 h photoperiod which was maintained at about 29° C. during the day and 26° C. during the night. Nutrients (Peters Excel® 15-5-15 5-Ca 2-Mg and iron chelate) were applied in the irrigation solution as needed and water was added on a regular basis. Supplemental lighting was provided with overhead metal halide 1000-Watt lamps as necessary. The plants were employed for testing when they reached the first through fourth true leaf stage.
(§10) Treatments consisted of the acid or esters of 4-amino-3-chloro-5-fluoro-6-(4-chloro-2-fluoro-3-methoxy-phenyl) pyridine-2-carboxylic acid (Compound A), each formulated as an SC (suspension concentrate), and various herbicidal components alone and in combination. Forms of compound A were applied on an acid equivalent basis.
(§11) Other herbicidal components were applied on an active ingredient basis and included auxin transport inhibiting (ATI) herbicides chlorflurenol (technical material), chlorflurenol-methyl (technical material), diflufenzopyr (technical material), diflufenzopyr sodium (technical material), flurenol-methyl (technical material) and naptalam (technical material).
(§12) Treatment requirements were calculated based upon the rates being tested, the concentration of active ingredient or acid equivalent in the formulation, and a 12 mL application volume at a rate of 187 L/ha.
(§13) For treatments comprised of formulated and technical compounds, weighed amounts of the technical materials were placed individually in 25 mL glass vials and dissolved in a volume of 97:3 v/v acetone/DMSO to obtain 12× stock solutions, and measured amounts of the formulated compounds were placed individually in 25 mL glass vials and diluted in a volume of 1.5% (v/v) crop oil concentrate or water to obtain 12× stock solutions. […] Application solutions were prepared by adding an appropriate amount of each stock solution (e.g., 1 mL) and diluted to the appropriate final concentrations with the addition of an appropriate amount of an aqueous mixture of 1.5% (v/v) crop oil concentrate so that the final spray solutions contained 1.25% (v/v) crop oil concentrate. When required, additional water and/or 97:3 v/v acetone/DMSO was added to individual application solutions so that the final acetone and DMSO concentrations of the application solutions being compared were 8.1% and 0.25%, respectively.
(§14) All stock solutions and applications solutions were visually inspected for compound compatibility prior to application. Spray solutions were applied to the plant material with an overhead Mandel track sprayer equipped with an 8002E nozzle calibrated to deliver 187 L/ha over an application area of 0.503 m^2 at a spray height of 18 to 20 inches (46 to 50 cm) above average plant canopy height. Control plants were sprayed in the same manner with the solvent blank.
(§15) The treated plants and control plants were placed in a greenhouse as described above and watered by sub-irrigation to prevent wash-off of the test compounds. After approximately 3 weeks, the condition of the test plants as compared with that of the untreated plants was determined visually and scored on a scale of 0 to 100 percent where 0 corresponds to no injury or growth inhibition and 100 corresponds to complete kill. […]

The subject of the next test is CYPIR. Nature of the test: Postemergence foliar-applied greenhouse weed control, CYPIR. To be noted: 22 DAA. It is filed as in vivo, Cyperus iria L.
From the text: as §9, §10, §11, §12, §13, §14, §15

The test system of another test is FIMMI. The test can be described thus: In-water applied (paddy) greenhouse weed control, FIMMI. It is filed as in vivo, Fimbristylis miliacea (L.) Vahl. Conditions: 19 DAA. The procedure: as §1, §2, §3, §4, §5, §6, §7, §8
For the next test, the system named is CYPRO. The test can be described thus: In-water applied (paddy) greenhouse weed control, CYPRO. It is filed as in vivo, Cyperus rotundus L. Conditions: 19 DAA. The protocol: as §1, §2, §3, §4, §5, §6, §7, §8
The next test concerns LEFCH. Nature of the test: Postemergence foliar-applied greenhouse weed control, LEFCH. The class given is in vivo, Leptochloa chinensis (L.) Nees. Conditions: 22 DAA.
From the text: as §9, §10, §11, §12, §13, §14, §15

A further test concerns ECHOR. The test can be described thus: In-water applied (paddy) greenhouse weed control, ECHOR. It is filed as in vivo, Echinochloa oryzoides (Ard.) Fritsch. Conditions: 19 DAA. The protocol:
as §1, §2, §3, §4, §5, §6, §7, §8

Another test relates to IPOHE. The test can be described thus: Postemergence foliar-applied greenhouse weed control, IPOHE. The class given is in vivo, Ipomoea hederacea Jacq. Conditions: 22 DAA.
From the text: as §9, §10, §11, §12, §13, §14, §15

SMILES strings stand for the structures.

As for `COC(=O)C1(O)c2ccccc2-c2ccccc21` [Flurenol-methyl], the “Visual Weed Control (%) Obs” value amounted to 0% in the test with ECHCG (68.75 gai/ha); 0% in the test with ECHCG (137.5 gai/ha); 0% with ECHCG (275 gai/ha); 0% with BRAPP (68.75 gai/ha); 0% with BRAPP (137.5 gai/ha); 30% in the test with BRAPP (275 gai/ha). For the same compound, the “Visual Weed Control (%) Obs” value in the test on CYPIR (68.75 gai/ha) is 0%; in the test with CYPIR (137.5 gai/ha), 0%; in the test on CYPIR (275 gai/ha) it was 60%; in the test with FIMMI (68.75 gai/ha) it was 0%; in the test on FIMMI (137.5 gai/ha), 0%; in the test with FIMMI (275 gai/ha), 20%. The “Visual Weed Control (%) Obs” value in the test with CYPRO (68.75 gai/ha) and with CYPRO (137.5 gai/ha) was 0% each time.
Regarding `O=C(O)c1ccccc1C(=O)Nc1cccc2ccccc12` [Naptalam, 2-[(1-naphthalenylamino)carbonyl]benzoic acid, reference compound], the “Visual Weed Control (%) Obs” value stood at 15% in the test on LEFCH (60 gai/ha); 15% in the test on LEFCH (120 gai/ha); 20% in the test on ECHCG (330 gai/ha); 0% in the test with BRAPP (30 gai/ha); 0% with BRAPP (60 gai/ha); 0% in the test on BRAPP (120 gai/ha). Moreover, the “Visual Weed Control (%) Obs” value in the test with FIMMI (330 gai/ha) was 50%; in the test with CYPRO (330 gai/ha), 0%; in the test on CYPRO (1320 gai/ha) it was 50%; in the test with ECHOR (330 gai/ha) it was 20%; in the test on ECHOR (660 gai/ha) it was 25%; in the test with ECHOR (1320 gai/ha) it was 30%. Also, the “Visual Weed Control (%) Obs” value in the test with IPOHE (60 gai/ha) and in the test on IPOHE (120 gai/ha) was 15% each time.
